The source of these data is ChEMBL document CHEMBL4811250, “Discovery and Optimization of 2H-1λ2-Pyridin-2-one Inhibitors of Mutant Isocitrate Dehydrogenase 1 for the Treatment of Cancer” (J Med Chem, 2021).

By inhibition is commonly meant the relative decrease from the control value, in per cent. For orientation: IC50 means the concentration that gives 50% inhibition.

The subject of test [1] is Isocitrate dehydrogenase [NADP] cytoplasmic (Homo sapiens), O75874 [R132H]. In words: Inhibition of IDH1 R132H mutant (unknown origin) assessed as reduction in NADPH consumption using alpha-KG as substrate at 38 uM incubated for 5 mins by diaphorase/resazurin-coupled system relative to control. (In general: Alamar Blue is a resazurin reagent that responds to reducing activity.)

Test [2] deals with Isocitrate dehydrogenase [NADP] cytoplasmic (Homo sapiens), O75874 [R132C]. In words: Inhibition of IDH1 R132C mutant (unknown origin) assessed as reduction in NADPH consumption using alpha-KG as substrate at 38 uM incubated for 5 mins by diaphorase/resazurin-coupled system relative to control.
Isocitrate dehydrogenase [NADP] cytoplasmic (Homo sapiens), O75874 [R132C], sequence (O75874 whole entry R132C): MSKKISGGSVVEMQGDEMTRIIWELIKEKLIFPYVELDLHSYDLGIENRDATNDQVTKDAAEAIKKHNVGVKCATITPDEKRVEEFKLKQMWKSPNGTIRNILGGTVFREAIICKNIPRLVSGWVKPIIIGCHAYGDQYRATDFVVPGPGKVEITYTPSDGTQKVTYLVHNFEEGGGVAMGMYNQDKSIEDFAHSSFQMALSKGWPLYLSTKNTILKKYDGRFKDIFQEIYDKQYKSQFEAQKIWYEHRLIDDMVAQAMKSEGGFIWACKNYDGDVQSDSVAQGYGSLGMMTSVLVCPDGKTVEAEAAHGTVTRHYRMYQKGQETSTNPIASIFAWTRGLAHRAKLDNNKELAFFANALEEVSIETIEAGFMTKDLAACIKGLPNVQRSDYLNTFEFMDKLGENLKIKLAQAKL
The target in test [3] is Isocitrate dehydrogenase [NADP] cytoplasmic (Homo sapiens, UniProt O75874, R132H). In words: Inhibition of IDH1 R132H mutant (unknown origin) assessed as reduction in NADPH consumption using alpha-KG as substrate incubated for 5 mins by diaphorase/resazurin-coupled system.
Isocitrate dehydrogenase [NADP] cytoplasmic (Homo sapiens, UniProt O75874, R132H), sequence (O75874 2-414 R132H limits assumed): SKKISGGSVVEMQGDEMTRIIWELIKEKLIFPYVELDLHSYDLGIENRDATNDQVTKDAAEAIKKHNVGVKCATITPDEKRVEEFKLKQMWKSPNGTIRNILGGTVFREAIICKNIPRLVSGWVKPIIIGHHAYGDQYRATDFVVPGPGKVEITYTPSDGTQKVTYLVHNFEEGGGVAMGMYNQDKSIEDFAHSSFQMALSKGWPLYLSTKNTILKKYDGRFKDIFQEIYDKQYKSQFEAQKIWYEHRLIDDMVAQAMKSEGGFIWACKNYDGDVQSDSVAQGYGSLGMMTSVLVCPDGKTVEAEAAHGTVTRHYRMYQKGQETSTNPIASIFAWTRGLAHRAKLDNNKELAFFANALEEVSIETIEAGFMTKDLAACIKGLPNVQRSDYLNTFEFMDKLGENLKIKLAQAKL
Test [4] has as its target Isocitrate dehydrogenase [NADP] cytoplasmic (Homo sapiens, UniProt O75874, R132C). Briefly: Inhibition of IDH1 R132C mutant (unknown origin) assessed as reduction in NADPH consumption using alpha-KG as substrate incubated for 5 mins by diaphorase/resazurin-coupled system.

Molecules are shown by their SMILES.

Isocitrate dehydrogenase [NADP] cytoplasmic (Homo sapiens), O75874 [R132H], sequence (O75874 whole entry R132H): as the sequence (O75874 whole entry R132C) above, with C132H counted along it
Isocitrate dehydrogenase [NADP] cytoplasmic (Homo sapiens, UniProt O75874, R132C), sequence (O75874 2-414 R132C limits assumed): as the sequence (O75874 2-414 R132H limits assumed) above, with H131C counted along it

Regarding `CC1(C)CC(=O)c2cc(-c3nc(-c4ccc(Cl)cc4)cs3)c(=O)n(-c3ccccc3C(F)(F)F)c2C1`, the inhibition in test [1] was 96%; in test [2], 87%. The IC50 in test [3] was 0.27 µM.

As to `COc1cc(C(=O)O)ccc1-n1c2c(cc(-c3nc(-c4ccc(Cl)cc4)cs3)c1=O)C(=O)CC(C)(C)C2`, the inhibition in test [2] came out at 43%.

Consider `COc1ccc(OC)c(-n2c3c(cc(-c4nc5cc(Cl)ccc5s4)c2=O)C(=O)CC(C)(C)C3)c1`, for which the IC50 in test [4] and in test [3] was greater than 38 µM each time.

Consider `CC1(C)CC(=O)c2cc(-c3nc(-c4ccc(Cl)cc4)cs3)c(=O)n(-c3ccccc3Cl)c2C1`, for which the inhibition in test [1] worked out at 83%; in test [2], 70%. Further, in test [3], the IC50 stood at 1.3 µM.

For the compound `CCc1cccc(CC)c1-n1c(C)c(C(=O)Nc2ccccc2)cc(-c2nc(-c3ccc(Cl)cc3)cs2)c1=O`, the results for the inhibition in test [1] and in test [2] were 40% and 69%, respectively.

As for `CC1(C)CC(=O)c2cc(-c3nc(-c4ccc(Cl)cc4)cs3)c(=O)n(-c3ccccc3F)c2C1`, the inhibition turned out to be 65% in test [1] and 49% in test [2].

For the compound `CC(C)=Cc1c(C(=O)N2CCNCC2)cc(-c2nc(-c3ccc(Cl)cc3)cs2)c(=O)n1-c1ccccc1`, the IC50 stood at 3.2 µM in test [4] and 0.33 µM in test [3].

`CCc1cccc(CC)c1-n1c(C=C(C)C)c(C(=O)N2CCNC(C(F)(F)F)C2)cc(-c2nc(-c3ccc(Cl)cc3)cs2)c1=O` (centres undefined): the IC50 came to 0.13 µM in test [4] and 0.36 µM in test [3].

Take `CCc1cccc(CC)c1-n1c(C=C(C)C)c(C(=O)N2CCNC(C#N)C2)cc(-c2nc(-c3ccc(Cl)cc3)cs2)c1=O` (centres undefined): the IC50 in test [4] was found to be 0.056 µM; in test [3], 0.16 µM.

In the case of `COc1ccncc1-n1c2c(cc(-c3nc(-c4ccc(Cl)cc4)cs3)c1=O)C(=O)CC(C)(C)C2`, the IC50 in test [4] and in test [3] was greater than 38 µM in each case.

Turning to `COc1c(C(=O)O)cccc1-n1c2c(cc(-c3nc(-c4ccc(Cl)cc4)cs3)c1=O)C(=O)CC(C)(C)C2`, the inhibition in test [1] is 82%; in test [2], 65%. The IC50 in test [3] came to 14 µM.

As to `COc1ccc(OC)c(-n2c3c(cc(-n4ccc(-c5ccccc5)n4)c2=O)C(=O)CC(C)(C)C3)c1`, the inhibition was 71% in test [1] and 41% in test [2].

In the case of `CCc1cccc(CC)c1-n1c(C)c(C(=O)NC)cc(-c2nc(-c3ccc(Cl)cc3)cs2)c1=O`, the inhibition worked out at 87% in test [1] and 64% in test [2]. Besides, in test [3], the IC50 was determined as 1.5 µM.

`CC1(C)CC(=O)c2cc(-c3nc(-c4ccc(Cl)cc4)cs3)c(=O)n(-c3ccccn3)c2C1`: the inhibition stood at 47% in test [1] and 39% in test [2].

With `COc1ccccc1-n1c2c(cc(-c3nc(-c4ccc(Cl)cc4)cs3)c1=O)C(=O)CC(C)(C)C2`, the inhibition in test [1] came out at 76%; in test [2], 65%. Also, the IC50 in test [3] turned out to be 2.4 µM.

Take `COc1cccc(-n2c3c(cc(-c4nc(-c5ccc(Cl)cc5)cs4)c2=O)C(=O)CC(C)(C)C3)c1OC`: the inhibition in test [1] is 64%; in test [2] it was 35%.

In the case of `COc1ccc(OC)c(-n2c3c(cc(-c4nc(-c5ccc(Cl)cc5)cs4)c2=O)C(=O)CCC3)c1`, the inhibition in test [1] came to 62%; in test [2] it was 43%.

Turning to `COc1ccc(OC)c(-n2c3c(cc(-c4nc(-c5ccc(Cl)cc5)cs4)c2=O)C(=O)CNC3)c1`, the inhibition was 75% in test [1] and 32% in test [2]. In addition, the IC50 in test [3] came out at 8 µM.

With `CCc1cccc(CC)c1-n1c(C)c(C(=O)O)cc(-c2nc(-c3ccc(Cl)cc3)cs2)c1=O`, the inhibition stood at 102% in test [1] and 72% in test [2]. Besides, the IC50 in test [3] was determined as 7.2 µM.

Take `CCc1cccc(CC)c1-n1c(C=C(C)C)c(C(=O)N2CCNC(C(N)=O)C2)cc(-c2nc(-c3ccc(Cl)cc3)cs2)c1=O` (centres undefined): the IC50 in test [4] was 0.042 µM; in test [3] it was 0.094 µM.

Take `CCc1cccc(Cl)c1-n1c(C=C(C)C)c(C(=O)N2CCNCC2)cc(-c2nc(-c3ccc(Cl)cc3)cs2)c1=O`: the IC50 worked out at 0.055 µM in test [4] and 0.044 µM in test [3].

As for `COc1ccc(OC)c(-n2c3c(cc(-c4cc(-c5ccccc5)[nH]n4)c2=O)C(=O)CC(C)(C)C3)c1`, the results for the inhibition in test [1] and in test [2] were 47% and 41%, respectively.

For `COc1ccc(OC)c(-n2c3c(cc(-c4nc(-c5ccc(Cl)cc5)cs4)c2=O)C(=O)NCC3)c1`, the inhibition in test [1] was found to be 84%; in test [2], 65%. The IC50 in test [3] stood at 2.3 µM.

Regarding `Cc1ccccc1-n1c2c(cc(-c3nc(-c4ccc(Cl)cc4)cs3)c1=O)C(=O)CC(C)(C)C2`, the inhibition came out at 74% in test [1] and 64% in test [2].

In the case of `COc1ccc(OC)c(-n2c3c(cc(-c4nc(-c5ccc(Cl)cc5)cs4)c2=O)C(=O)CC3)c1`, the figures for the inhibition in test [1] and in test [2] were 38% and 29%, respectively.

Turning to `CCc1cccc(CC)c1-n1c(C)c(C(=O)NC(C)(C)C)cc(-c2nc(-c3ccc(Cl)cc3)cs2)c1=O`, the inhibition in test [1] amounted to 65%; in test [2], 49%.

On to `CCc1cccc(CC)c1-n1c(C)c(C(=O)NC2CCCCC2)cc(-c2nc(-c3ccc(Cl)cc3)cs2)c1=O`, for which the inhibition in test [2] came out at 31%. Moreover, the IC50 in test [3] is greater than 38 µM.

With `CC(C)n1c2c(cc(-c3nc(-c4ccc(Cl)cc4)cs3)c1=O)C(=O)CC(C)(C)C2`, the inhibition amounted to 31% in test [1] and 33% in test [2].

Turning to `CC1(C)CC(=O)c2cc(-c3nc(-c4ccc(Cl)cc4)cs3)c(=O)n(-c3ccccc3Oc3ccccc3)c2C1`, the figures for the inhibition in test [1] and in test [2] were 30% and 60%, respectively.

Take `COc1ccc(OC)c(-n2c3c(cc(-c4ccn(-c5ccccc5)n4)c2=O)C(=O)CC(C)(C)C3)c1`: the inhibition in test [1] was found to be 84%; in test [2], 46%. Besides, the IC50 in test [3] is 3.1 µM.

For `CN(C)c1ccccc1-n1c2c(cc(-c3nc(-c4ccc(Cl)cc4)cs3)c1=O)C(=O)CC(C)(C)C2`, the inhibition came out at 56% in test [1] and 57% in test [2].

As for `COc1ccc(OC)c(-n2c3c(cc(-n4cnc(-c5ccccc5)c4)c2=O)C(=O)CC(C)(C)C3)c1`, the inhibition in test [1] came to 59%; in test [2], 44%.

Take `CC1(C)CC(=O)c2cc(-c3nc(-c4ccc(Cl)cc4)cs3)c(=O)n(-c3ccccc3OCc3ccccc3)c2C1`: the inhibition in test [1] is 38%; in test [2], 61%.

As for `CC1(C)CC(=O)c2cc(-c3nc(-c4ccc(Cl)cc4)cs3)c(=O)n(-c3ccccc3N)c2C1`, the results for the inhibition in test [1] and in test [2] were 57% and 42%, respectively.

Regarding `COc1ccccc1Cn1c2c(cc(-c3nc(-c4ccc(Cl)cc4)cs3)c1=O)C(=O)CC(C)(C)C2`, the values for the inhibition in test [1] and in test [2] were 61% and 53%, respectively.

`CC1(C)CC(=O)c2cc(-c3nc(-c4ccc(Cl)cc4)cs3)c(=O)n(-c3ccccc3-c3ccccc3)c2C1`: the figures for the inhibition in test [1] and in test [2] were 59% and 67%, respectively.

As to `CCc1cccc(CC)c1-n1c(C)c(C(=O)NCc2ccccc2)cc(-c2nc(-c3ccc(Cl)cc3)cs2)c1=O`, in test [2], the inhibition amounted to 41%. Moreover, the IC50 in test [3] is greater than 38 µM.

With `COc1ccc(OC)c(-n2c3c(cc(-c4cccc(-c5ccc(Cl)cc5)n4)c2=O)C(=O)CC(C)(C)C3)c1`, the figures for the inhibition in test [1] and in test [2] were 67% and 46%, respectively.

`CNc1ccccc1-n1c2c(cc(-c3nc(-c4ccc(Cl)cc4)cs3)c1=O)C(=O)CC(C)(C)C2`: the inhibition came out at 59% in test [1] and 43% in test [2].

Take `COc1ccc(OC)c(-n2c(=O)c(-c3nc(-c4ccc(Cl)cc4)cs3)cc3c(O)cccc32)c1`: the figures for the inhibition in test [1] and in test [2] were 35% and 36%, respectively.

Regarding `CC(C)c1ccccc1-n1c2c(cc(-c3nc(-c4ccc(Cl)cc4)cs3)c1=O)C(=O)CC(C)(C)C2`, the results for the inhibition in test [1] and in test [2] were 62% and 61%, respectively.

As to `CCc1cccc(CC)c1-n1c(C)c(C(=O)N2CCCCC2)cc(-c2nc(-c3ccc(Cl)cc3)cs2)c1=O`, the inhibition in test [1] is 51%; in test [2] it was 65%.

As to `CC1(C)CC(=O)c2cc(-c3nc(-c4ccc(Cl)cc4)cs3)c(=O)n(-c3sccc3C#N)c2C1`, the inhibition in test [1] is 100%; in test [2], 90%. Besides, in test [3], the IC50 amounted to 0.26 µM.

Turning to `COc1cccc(C)c1-n1c2c(cc(-c3nc(-c4ccc(Cl)cc4)cs3)c1=O)C(=O)CC(C)(C)C2`, the inhibition in test [1] was found to be 81%; in test [2], 72%. Further, in test [3], the IC50 is 2.1 µM.

Turning to `CCc1cccc(CC)c1-n1c(C)c(C(=O)NC(C)C)cc(-c2nc(-c3ccc(Cl)cc3)cs2)c1=O`, the values for the inhibition in test [1] and in test [2] were 47% and 54%, respectively. In addition, the IC50 in test [3] was 2.8 µM.

For `COc1ccc(OC)c(-n2c3c(cc(-c4nc(-c5ccccc5)cs4)c2=O)C(=O)CC(C)(C)C3)c1`, the inhibition in test [1] was 77%; in test [2], 59%. Further, the IC50 in test [3] amounted to 1.2 µM.

For the compound `CC1(C)CC(=O)c2cc(-c3nc(-c4ccc(Cl)cc4)cs3)c(=O)n(-c3ccccc3)c2C1`, the inhibition in test [1] was found to be 47%; in test [2] it was 38%.

On to `COc1ccc(OC)c(-n2c3c(cc(-c4c[nH]c(-c5ccccc5)n4)c2=O)C(=O)CC(C)(C)C3)c1`, for which the values for the inhibition in test [1] and in test [2] were 75% and 39%, respectively. Also, the half-inhibitory concentration (IC50) in test [3] turned out to be 2.1 µM.

For the compound `COc1ccc(OC)c(-n2c3c(cc(-c4nc(-c5ccc(Cl)cc5)cs4)c2=O)CCC(C)(C)C3)c1`, the inhibition was 87% in test [1] and 64% in test [2]. Besides, the IC50 in test [3] is 3.6 µM.

`CC1(C)CC(=O)c2cc(-c3nc(-c4ccc(Cl)cc4)cs3)c(=O)n(-c3ccccc3O)c2C1`: the inhibition in test [1] came out at 71%; in test [2], 61%.
